According to PMC4437653, “Biochemical, Kinetic, and Spectroscopic Characterization of Ruegeria pomeroyi DddW—A Mononuclear Iron-Dependent DMSP Lyase” (PLoS ONE, 2015):

B1: Ruegeria pomeroyi DSS-3 DddW (DMSP lyase), N-terminally His-tagged, apo form (enzyme, UniProt Q5LW89 1-152, looked up)
chain: MTAMLDSFATDLTAATSLHQPGNLPHPPHAIDAENVPLSGGTDPTYGEVRWRTLINGTEAAPRDMVLGIAEFGPGHQLRPHRHTPPEFYLGLEGSGIVTIDGVPHEIRAGVALYIPGDAEHGTVAGPEGLRFAYGFASASFEAIEYRFTASA
notes: DddW, DMSP lyase of Ruegeria pomeroyi DSS-3 (locus SPO0453), 16.9 kDa without tag; No removal of the His10 tag is described; also called apo-DddW; SPO0453; source: E. coli BL21Star DE3 pLysS, purified (Ni-NTA), dialysed against EDTA to give apo-DddW

Assays:
DddW [1] = biological target: T1, DddW (Ruegeria pomeroyi, UniProt Q5LW89, E87A); experiment: HPLC of acrylate product at […] nm, […] min end point; format: biochemical; settings: 2 uM enzyme, 2 uM Fe(II), 10 mM DMSP, anaerobic
T1 construct: E. coli BL21Star DE3 pLysS; EDTA-treated apo enzyme loaded with metal; homodimer; cloning primers encode MTAMLDSF at the N-terminus and RFTASA at the C-terminus
T1 sequence (Q5LW89 whole entry E87A): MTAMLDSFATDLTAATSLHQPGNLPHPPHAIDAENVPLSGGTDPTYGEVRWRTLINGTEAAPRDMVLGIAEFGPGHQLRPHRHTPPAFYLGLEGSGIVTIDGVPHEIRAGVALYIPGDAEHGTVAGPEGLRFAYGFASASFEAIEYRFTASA

DddW [2] = biological target: T2, DddW (Ruegeria pomeroyi, UniProt Q5LW89, H121A); experiment: HPLC of acrylate product at […] nm, […] min end point; format: biochemical; settings: 2 uM enzyme, 2 uM Fe(II), 10 mM DMSP, anaerobic
T2 construct: E. coli BL21Star DE3 pLysS; EDTA-treated apo enzyme loaded with metal; homodimer; cloning primers encode MTAMLDSF at the N-terminus and RFTASA at the C-terminus
T2 sequence (Q5LW89 whole entry H121A): as the sequence (Q5LW89 whole entry E87A) above, with A87E, H121A counted along it

DddW [3] = biological target: T3, DddW (Ruegeria pomeroyi, UniProt Q5LW89, H83A); experiment: HPLC of acrylate product at […] nm, […] min end point; format: biochemical; settings: 2 uM enzyme, 2 uM Fe(II), 10 mM DMSP, anaerobic
T3 construct: E. coli BL21Star DE3 pLysS; EDTA-treated apo enzyme loaded with metal; homodimer; cloning primers encode MTAMLDSF at the N-terminus and RFTASA at the C-terminus
T3 sequence (Q5LW89 whole entry H83A): as the sequence (Q5LW89 whole entry E87A) above, with H83A, A87E counted along it

DddW [4] = biological target: T4, DddW (Ruegeria pomeroyi, UniProt Q5LW89, H81A); experiment: HPLC of acrylate product at […] nm, […] min end point; format: biochemical; settings: 2 uM enzyme, 2 uM Fe(II), 10 mM DMSP, anaerobic
T4 construct: E. coli BL21Star DE3 pLysS; EDTA-treated apo enzyme loaded with metal; homodimer; cloning primers encode MTAMLDSF at the N-terminus and RFTASA at the C-terminus
T4 sequence (Q5LW89 whole entry H81A): as the sequence (Q5LW89 whole entry E87A) above, with H81A, A87E counted along it

purified protein = substrate: C[S+](C)CCC(=O)[O-]; experiment: purified protein; format: biochemical, Ruegeria pomeroyi; settings: 2 uM apo-DddW with 2 uM Fe(II), pH 8.0, 50 mM HEPES, 20 mM NaCl, room temperature, anaerobic, DMSP 0.5-35 mM
[5] = biological target: the molecule itself; experiment: SEC; as-isolated apo-DddW (19 mg/mL) on Superdex 200 16/600 in storage buffer (50 mM HEPES pH 7.5, 100 mM NaCl, 10% glycerol), 0.6 mL/min; mass by comparison with standards

Row | Molecule | no acrylate product formed (DddW [1]) | no acrylate product formed (DddW [2]) | no acrylate product formed (DddW [3]) | no acrylate product formed (DddW [4]) | Km (purified protein) | kcat (purified protein) | stoichiometry N [5]
1 | C[S+](C)CCC(=O)[O-] [DMSP] | none of the DddW mutants formed the acrylate product compared to the wild-type enzyme | none of the DddW mutants formed the acrylate product compared to the wild-type enzyme | none of the DddW mutants formed the acrylate product compared to the wild-type enzyme | none of the DddW mutants formed the acrylate product compared to the wild-type enzyme | – | – | –
2 | B1 | – | – | – | – | 8.68 ± 0.73 mM | 18.25 s⁻¹ | 2
